Experimental findings from publication PMC6514664, “Six New Coumarin Glycosides from the Aerial Parts of Gendarussa vulgaris” (Molecules, 2019) are described below.

One data set concerns Eca-109 cell line. Put plainly: MTT cytotoxicity assay, Eca-109 cell line. The data set is classed as cell-based, Human. As to conditions: Eca-109 esophageal cancer cell line, etoposide positive control. As for the experimental part:
(§1) The cytotoxic activities of all isolated compounds were evaluated by MTT assay.
(§2) According to the previous procedure, all isolated compounds were evaluated for cytotoxic activities against Eca-109, MCF-7, and HepG2 cell lines, as well as a normal human umbilical vein endothelial cell line (HUVEC) (Table 3). Etoposide was used as the positive control.
(§3) The UV spectra were measured on a Shimadzu UV-1700 spectrometer (Shimadzu Corporation, Kyoto, Japan). The IR spectra were measured on a Nicolet 10 Microscope Spectrometer (Thermo Scientific, San Jose, CA, USA). The 1D and 2D NMR spectra were recorded on Bruker-AC (E)-500 spectrometer (Bruker AM 500, Fällanden, Switzerland) using TMS as an internal standard. The HR-ESI-MS was determined on a Bruker microTOF-Q instrument (Bruker BioSpin, Rheinstetten, Germany). Column chromatography was performed with silica gel (200–300 mesh; Qingdao Marine Chemical Inc., Qingdao, China), sephadex LH-20 (GE Healthcare), ODS (50 µm; YMC Co. LTD., Kyoto, Japan.), AB-8 macroporous resin (Qinshi Science and Technology Ltd., Zhengzhou, China). Thin layer chromatography (TLC) was carried out on silica gel GF254 precoated plates (Qingdao Marine Chemical Inc., Qingdao, China), and spots were visualized under UV light. Preparative HPLC separations were performed on a SEP system (Beijing Sepuruisi scientific Co., Ltd., China) equipped with a variable-wavelength UV detector, using a YMC-Pack ODS-A column (250 × 20 mm, 5 μm). Chemical reagents for isolation were of analytical grade and purchased from Tianjin Siyou Co., Ltd., China. Biological reagents were from Sigma Company. Human heptocellular (HepG2), esophageal (Eca-109), and breast (MCF-7) cancer cell lines were from Institute of Materia Medica, Chinese Academy of Medical Sciences and Peking Union Medical College, China.
In general terms: Formazan colour is commonly taken as a measure of viable cells.

Another data set concerns HepG2 cell line. The data set can be described thus: MTT cytotoxicity assay, HepG2 cell line. Conditions: HepG2 hepatocellular cancer cell line, etoposide positive control. In kind it is cell-based, Human. As for the experimental part: as §1, §2, §3
For a further data set, the system named is MCF-7 cell line. Put plainly: MTT cytotoxicity assay, MCF-7 cell line. In kind it is cell-based, Human. Conditions: etoposide positive control. The method, then: as §1, §2, §3
Data set [1] in a line: MTT cytotoxicity assay, normal HUVEC cell line. In kind it is cell-based. As to conditions: HUVEC (normal human umbilical vein endothelial cells).
Protocol: (§4) According to the previous procedure [22], all isolated compounds were evaluated for cytotoxic activities against Eca-109, MCF-7, and HepG2 cell lines, as well as a normal human umbilical vein endothelial cell line (HUVEC) (Table 3). Etoposide was used as the positive control.
Data set [2] relates to normal human umbilical vein endothelial cell line (HUVEC). Put plainly: MTT cytotoxicity assay, normal HUVEC cell line. The data set is classed as cell-based.
Protocol: as §4
Setting [3] is: Homo sapiens, MCF7, MCF-7 breast cancer cell line.

For orientation: IC50 means the concentration at which inhibition is half-maximal. A low value points to greater potency in that assay. On to `COc1cc2ccc(=O)oc2cc1O[C@@H]1O[C@H](CO)[C@@H](O)[C@H](O[C@@H]2O[C@H](CO)[C@@H](O)[C@H](O)[C@H]2O)[C@H]1O` [Compound 3, 7-[(3-O-β-D-glucopyranosyl-β-D-glucopyranosyl)oxy]-6-methoxycoumarin], for which the IC50 in the data set on Eca-109 cell line (Homo sapiens), in the data set with HepG2 cell line (Homo sapiens) and in the data set with MCF-7 cell line (setting [3]) was greater than 100 µM in each case.
For `COc1cc2ccc(=O)oc2c(O[C@@H]2O[C@H](CO)[C@@H](O)[C@H](O)[C@H]2O)c1O[C@@H]1O[C@H](CO)[C@@H](O)[C@H](O)[C@H]1O` [Compound 6, 7,8-bis(β-D-glucopyranosyloxy)-6-methoxycoumarin], the IC50 in the data set with Eca-109 cell line (Homo sapiens), in the data set on HepG2 cell line (Homo sapiens) and in the data set on MCF-7 cell line (setting [3]) was greater than 100 µM throughout.
Consider `COc1cc2ccc(=O)oc2c(O)c1O` [Compound 12, fraxetin], for which the IC50 is 20.4 ± 1.94 µM in the data set on Eca-109 cell line (Homo sapiens), 30.3 ± 1.18 µM in the data set on HepG2 cell line (Homo sapiens), 28.6 ± 1.37 µM in the data set with MCF-7 cell line (setting [3]) and greater than 100 µM in data set [1].
With `COc1cc2ccc(=O)oc2cc1O` [Compound 13, scopoletin], the IC50 in the data set on Eca-109 cell line (Homo sapiens) was 45.7 ± 3.55 µM; in the data set on HepG2 cell line (Homo sapiens), 53.7 ± 4.09 µM; with MCF-7 cell line (setting [3]), 61.6 ± 5.7 µM; in data set [1], greater than 100 µM.
Consider `COc1cc2ccc(=O)oc2c(O)c1OC` [Compound 14, fraxidin], for which the IC50 in the data set with Eca-109 cell line (Homo sapiens) was 41.1 ± 3.78 µM; in the data set with HepG2 cell line (Homo sapiens) it was greater than 100 µM; in the data set on MCF-7 cell line (setting [3]), 59.6 ± 5.24 µM; in data set [1] it was greater than 100 µM.
`COc1cc2ccc(=O)oc2cc1OC` [Compound 16, scoparone]: the IC50 in the data set on Eca-109 cell line (Homo sapiens), with HepG2 cell line (Homo sapiens) and in the data set with MCF-7 cell line (setting [3]) was greater than 100 µM in each case.
On to `COc1cc([C@@H]2c3cc4c(cc3[C@@H](O[C@@H]3O[C@@H]5CO[C@@H](C)O[C@H]5[C@H](O)[C@H]3O)[C@H]3COC(=O)[C@H]23)OCO4)cc(OC)c1O` [etoposide, reference compound], for which the IC50 in the data set on Eca-109 cell line (Homo sapiens) came out at 20.5 ± 1.82 µM; with HepG2 cell line (Homo sapiens), 1.15 ± 0.09 µM; in the data set with MCF-7 cell line (setting [3]), 5.82 ± 0.49 µM.
Take cleomiscosin A [Compound 11]: the IC50 is 21 ± 1.85 µM in the data set with Eca-109 cell line, 43.7 ± 3.97 µM in the data set with HepG2 cell line, 35.3 ± 2.61 µM in the data set with MCF-7 cell line (MCF-7 breast cancer cell line) and greater than 100 µM in data set [2].
